Reference: patent US8895558B2, “Arylpiperazine-containing pyrrole 3-carboxamide derivatives for treating depressive disorders” (Green Cross Corporation, priority 2008, dated 2014)
Where a name gives a salt, the structure may show the parent alone.

Key:
mice = assay: Anti-depressants activity in forced swimming test; assay type: in vivo; conditions: 100 mg/kg po, 60 min before testing, hydrochloride
Method: To evaluate the anti-depressants activity of the compounds, the inhibitory effects on immobility in forced swimming test in mice were measured according to the methods described by Porsolt et al. [Porsolt R D et al., Eur J Pharmacol. 1978, 51, 291-294].
Each mouse was placed in a 25-cm glass cylinder (10 cm diameter) containing 15 cm of water maintained at 22±1 , and was forced to swim for 10 min. Twenty-four hours later, the mouse was replaced into the cylinder and the total duration of immobility was recorded during the last 5 min of the 6-min testing period. Mice are judged immobile when they float in an upright position and make only small movements to keep their head above water. Test drugs were suspended in 3% Tween 80 solution, and administered orally (po) 60 min before the testing.

[1] = molecular target: T1, human serotonin transporter (Homo sapiens, UniProt P31645); assay: Binding affinity for serotonin transporter ([3H]Imipramine); conditions: HEK-293 membranes, 2 nM [3H]Imipramine
T1 construct: purchased PerkinElmer; host or cells: HEK-293
T1 sequence (P31645 whole entry): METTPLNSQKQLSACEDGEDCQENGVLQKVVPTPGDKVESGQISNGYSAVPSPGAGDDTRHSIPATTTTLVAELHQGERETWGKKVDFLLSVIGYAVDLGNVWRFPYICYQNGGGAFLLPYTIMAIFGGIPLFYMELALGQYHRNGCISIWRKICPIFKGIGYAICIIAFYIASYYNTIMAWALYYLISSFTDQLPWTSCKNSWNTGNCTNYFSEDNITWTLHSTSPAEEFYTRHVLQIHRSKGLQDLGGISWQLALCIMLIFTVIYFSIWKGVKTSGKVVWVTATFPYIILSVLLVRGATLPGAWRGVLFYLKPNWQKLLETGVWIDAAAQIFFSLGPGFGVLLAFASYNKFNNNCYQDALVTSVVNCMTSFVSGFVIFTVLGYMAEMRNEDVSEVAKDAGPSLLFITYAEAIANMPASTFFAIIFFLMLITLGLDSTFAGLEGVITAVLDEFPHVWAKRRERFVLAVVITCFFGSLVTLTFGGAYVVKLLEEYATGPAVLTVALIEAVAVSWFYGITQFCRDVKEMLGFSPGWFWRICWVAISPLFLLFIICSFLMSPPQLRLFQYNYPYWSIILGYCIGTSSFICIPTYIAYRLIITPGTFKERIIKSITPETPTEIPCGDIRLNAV
Procedure, shortened: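 Membranes from HEK-293 cells expressing human serotonin transporter (5 ug/well) incubated with compound and 2 nM [3H]imipramine in 50 mM Tris-HCl pH 7.4, 120 mM NaCl, 5 mM KCl, 30 min at 27. Bound ligand separated by filtration onto glass fiber filters presoaked in 0.5% PEI, washed with ice-cold Tris-HCl/0.9% NaCl.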

[2] = molecular target: T2, human recombinant 5-HT2C receptor (Homo sapiens, UniProt P28335); assay: Binding affinity for serotonin 5-HT2C receptor ([3H]Mesulergine); conditions: CHO-K1 membranes, 1.3 nM [3H]Mesulergine
T2 construct: purchased PerkinElmer
T2 sequence (P28335 33-458): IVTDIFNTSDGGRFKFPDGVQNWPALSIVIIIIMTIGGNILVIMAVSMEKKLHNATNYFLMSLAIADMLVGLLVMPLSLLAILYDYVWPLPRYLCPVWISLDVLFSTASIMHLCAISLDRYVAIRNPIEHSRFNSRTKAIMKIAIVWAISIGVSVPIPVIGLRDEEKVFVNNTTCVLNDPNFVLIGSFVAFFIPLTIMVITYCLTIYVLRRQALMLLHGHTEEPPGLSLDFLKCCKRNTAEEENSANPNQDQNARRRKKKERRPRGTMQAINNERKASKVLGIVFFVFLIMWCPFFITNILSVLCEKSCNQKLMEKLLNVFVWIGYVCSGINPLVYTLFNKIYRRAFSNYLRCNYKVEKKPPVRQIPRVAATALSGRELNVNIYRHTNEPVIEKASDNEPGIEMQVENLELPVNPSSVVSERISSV
Procedure, shortened: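 Competition binding with [3H]mesulergine; nonspecific binding defined with 100 uM mianserin. Incubation 60 min at 27, stopped by rapid filtration onto glass fiber filters presoaked in 0.5% PEI.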

[3] = molecular target: T3, human recombinant serotonin 5-HT2A receptor (Homo sapiens, UniProt P28223); assay: Binding affinity for serotonin 5-HT2A receptor ([3H]Ketanserin); conditions: CHO-K1 expressed receptor, 1 nM [3H]Ketanserin
T3 construct: purchased PerkinElmer Life and Analytical Sciences, USA; host or cells: CHO-K1
T3 sequence (P28223 whole entry): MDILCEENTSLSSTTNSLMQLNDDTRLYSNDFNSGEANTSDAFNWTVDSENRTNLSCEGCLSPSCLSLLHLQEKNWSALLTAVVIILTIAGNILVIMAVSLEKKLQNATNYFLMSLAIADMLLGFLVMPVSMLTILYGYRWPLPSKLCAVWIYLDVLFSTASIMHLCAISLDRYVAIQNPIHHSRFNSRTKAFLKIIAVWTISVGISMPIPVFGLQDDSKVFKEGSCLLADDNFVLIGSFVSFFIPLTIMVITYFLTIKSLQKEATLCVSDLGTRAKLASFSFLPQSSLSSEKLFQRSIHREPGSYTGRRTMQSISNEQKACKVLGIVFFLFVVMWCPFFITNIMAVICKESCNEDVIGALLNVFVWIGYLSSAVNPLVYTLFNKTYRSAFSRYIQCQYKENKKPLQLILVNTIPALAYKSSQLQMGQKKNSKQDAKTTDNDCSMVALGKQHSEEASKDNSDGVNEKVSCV
Procedure, shortened: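 Membranes from CHO-K1 cells expressing recombinant receptor (5 ug/well) incubated 60 min at 27 with 1 nM [3H]ketanserin in 50 mM Tris-HCl pH 7.4, 4 mM CaCl2, 0.1% ascorbic acid; mianserin 20 uM defined nonspecific binding. Filtration and counting; IC50 by nonlinear regression over 7-8 concentrations in duplicate.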

Structure (SMILES) | immobility in forced swimming test (mice) [%] | IC50 [1] [nM] | IC50 [2] [nM] | IC50 [3] [nM]
Cc1[nH]c(-c2ccccc2)cc1C(=O)NCCN1CCN(c2cccc(Cl)c2Cl)CC1.Cl [Example 48, N-(2-(4-(2,3-dichlorophenyl)piperazin-1-yl)ethyl)-2-methyl-5-phenyl-1H-pyrrole-3-carboxamide hydrochloride] | 26.1 | 57 | 156 | 175
Cc1[nH]c(-c2ccc(Cl)cc2)cc1C(=O)NCCCN1CCN(c2cccc(Cl)c2Cl)CC1 [Example 45, 5-(4-chlorophenyl)-N-(3-(4-(2,3-dichlorophenyl)piperazin-1-yl)propyl)-2-methyl-1H-pyrrole-3-carboxamide hydrochloride] |  | 56 | 106 | 105
CCn1c(-c2ccccc2)cc(C(=O)NCCCN2CCN(c3cccc(C)c3C)CC2)c1C [Example 5, N-(3-(4-(2,3-dimethylphenyl)piperazin-1-yl)propyl)-1-ethyl-2-methyl-5-phenyl-1H-pyrrole-3-carboxamide] |  | 35.9 | 139 | 75
Cc1c(C(=O)NCCCN2CCN(c3cccc(Cl)c3Cl)CC2)cc(-c2cccnc2)n1C [Example 100, N-(3-(4-(2,3-dichlorophenyl)piperazin-1-yl)propyl)-1,2-dimethyl-5-(pyridin-3-yl)-1H-pyrrole-3-carboxamide] |  | 92 | 209 | 49
